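96-well plates; 48 h exposure; 5 concentrations. Endpoints by linear interpolation between flanking doses. Not reached: highest tested concentration assigned. Abbreviation: GI50, concentration required for 50% inhibition of growth.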 The source made the active and inactive calls. No stated cut-off is given here; in the data, active = GI50 up to about 1.1 µM and inactive = higher. Peptide text beside a SMILES is read from it. * marks the point of attachment. Boc = CC(C)(C)OC(=O)*; OtBu = CC(C)(C)O*
Assays:
Assay in all cases: NCI tumour cell line growth inhibition, 48 h
MDA-MB-231 = tested on: MDA-MB-231
HOP-92 = tested on: HOP-92
NCI/ADR-RES = tested on: NCI/ADR-RES
NCI-H226 = tested on: NCI-H226
OVCAR-5 = tested on: OVCAR-5
SK-MEL-5 = tested on: SK-MEL-5
HCT-116 = tested on: HCT-116
SF-295 = tested on: SF-295
HCT-15 = tested on: HCT-15
DU-145 = tested on: DU-145
UACC-62 = tested on: UACC-62
OVCAR-4 = tested on: OVCAR-4
MDA-N = tested on: MDA-N
Hs-578T = tested on: Hs-578T
MOLT-4 = tested on: MOLT-4
IGROV-1 = tested on: IGROV-1
TK-10 = tested on: TK-10
K562 = tested on: K562
SR = tested on: SR
Malme-3M = tested on: Malme-3M

Measured: GI50

COc1cc2cc(C(=O)N3CC(COS(C)(=O)=O)c4c3cc([N+](=O)[O-])c3ccccc43)[nH]c2c(OC)c1OC (stereo unspecified)
inactive: MDA-MB-231 60.4 µM | HOP-92 > 31.6 µM | NCI-H226 > 100 µM | OVCAR-5 18.6 µM | SK-MEL-5 > 10 µM | HCT-116 1.24 µM | SF-295 2.37 µM | UACC-62 2.74 µM | OVCAR-4 > 31.6 µM | MDA-N 19.5 µM | Hs-578T > 31.6 µM | IGROV-1 23.5 µM | TK-10 > 31.6 µM | K562 > 100 µM
> 31.6 µM: HCT-15
active: NCI/ADR-RES 0.698 µM | DU-145 0.553 µM | MOLT-4 0.407 µM

Cc1nn(C(=O)c2ccccc2O)c2c1C(c1ccc3ccccc3c1O)SC(=N)N2 (stereo unspecified)
active: HOP-92 0.378 µM
4.26 µM: HCT-15
inactive: MDA-MB-231 3.05 µM | SR 4.53 µM | NCI-H226 2.65 µM | OVCAR-5 7.19 µM | SK-MEL-5 1.63 µM | HCT-116 1.5 µM | SF-295 > 10 µM | Malme-3M > 10 µM | UACC-62 1.77 µM | OVCAR-4 5.13 µM | MDA-N 3.44 µM | Hs-578T 1.7 µM | MOLT-4 2.98 µM | IGROV-1 3.61 µM | TK-10 8.75 µM | K562 3.6 µM

CCOC(=O)/C(C(=O)Nc1cccc(Cl)c1)=C(/N)N1CCOCC1
inactive: MDA-MB-231 > 100 µM | NCI/ADR-RES > 100 µM | NCI-H226 > 100 µM | OVCAR-5 > 100 µM | HCT-116 > 100 µM | SF-295 > 100 µM | Malme-3M > 100 µM | DU-145 > 100 µM | UACC-62 > 100 µM | OVCAR-4 > 100 µM | MDA-N > 100 µM | Hs-578T > 100 µM | MOLT-4 > 100 µM | IGROV-1 > 100 µM | TK-10 > 100 µM | K562 > 100 µM
> 100 µM: HCT-15

C=C1CC23CCC4C(C)(C(=O)O)CCCC4(C)C2CCC1C3 (stereo unspecified)
inactive: MDA-MB-231 25.9 µM | HOP-92 32.8 µM | SR 33.3 µM | NCI-H226 55.7 µM | OVCAR-5 95.3 µM | HCT-116 32.7 µM | SF-295 35.3 µM | Malme-3M 94 µM | DU-145 65.3 µM | UACC-62 52.4 µM | OVCAR-4 58.5 µM | MDA-N 64 µM | Hs-578T 44.3 µM | IGROV-1 24.4 µM | TK-10 38.4 µM | K562 46.3 µM
36.2 µM: HCT-15

C=C(C)C1=CCC[C@]2(C1)N=C(OC)[C@@H](C(C)C)N=C2OC
inactive: MDA-MB-231 > 100 µM | HOP-92 56 µM | NCI/ADR-RES > 100 µM | NCI-H226 > 100 µM | OVCAR-5 > 100 µM | SK-MEL-5 98.6 µM | HCT-116 > 100 µM | SF-295 > 100 µM | Malme-3M > 100 µM | DU-145 > 100 µM | UACC-62 > 100 µM | OVCAR-4 > 100 µM | MDA-N 32.2 µM | Hs-578T > 100 µM | MOLT-4 28.7 µM | IGROV-1 47.1 µM | TK-10 > 100 µM
> 100 µM: HCT-15

CC(=O)Oc1ccc2cc(Oc3ccc(Cl)cc3)c(=O)oc2c1
28.8 µM: HCT-15
inactive: MDA-MB-231 44.3 µM | HOP-92 38.1 µM | SR 64.7 µM | NCI-H226 41.5 µM | OVCAR-5 > 100 µM | SK-MEL-5 20.4 µM | HCT-116 27.5 µM | SF-295 33.6 µM | Malme-3M 25 µM | DU-145 53.6 µM | OVCAR-4 58.2 µM | MDA-N 25.6 µM | Hs-578T 79.1 µM | IGROV-1 30.1 µM | TK-10 > 100 µM

CN(C)CCNc1nc2ccccc2c2c1CCCC2
inactive: MDA-MB-231 14.7 µM | HOP-92 12.3 µM | NCI/ADR-RES 25.1 µM | NCI-H226 21.1 µM | OVCAR-5 30.4 µM | SK-MEL-5 15.3 µM | HCT-116 14.8 µM | SF-295 15.9 µM | Malme-3M 16.3 µM | DU-145 33.9 µM | UACC-62 16.4 µM | OVCAR-4 48.9 µM | MDA-N 16.1 µM | Hs-578T 32.7 µM | MOLT-4 23.2 µM | IGROV-1 17.2 µM | TK-10 14.5 µM | K562 20.3 µM
32 µM: HCT-15

O=C(CBr)N1CCC2(CC1)SSC1(CCN(C(=O)CBr)CC1)S2
active: SR 0.178 µM | HCT-116 0.373 µM | MOLT-4 0.159 µM | K562 0.647 µM
inactive: MDA-MB-231 2.33 µM | HOP-92 2.1 µM | NCI/ADR-RES 1.97 µM | OVCAR-5 1.39 µM | SF-295 1.94 µM | UACC-62 1.47 µM | OVCAR-4 2.02 µM | MDA-N 1.31 µM | Hs-578T 1.72 µM
1.44 µM: HCT-15

COC1(OC)CCCCCCCCC(OC)(OC)CCCCCCCC1
inactive: HOP-92 > 100 µM | NCI/ADR-RES > 100 µM | SR > 100 µM | NCI-H226 > 100 µM | OVCAR-5 > 100 µM | SK-MEL-5 > 100 µM | HCT-116 > 100 µM | SF-295 > 100 µM | Malme-3M > 100 µM | DU-145 > 100 µM | UACC-62 > 100 µM | MDA-N > 100 µM | Hs-578T > 100 µM | IGROV-1 > 100 µM | TK-10 > 100 µM | K562 > 100 µM
> 100 µM: HCT-15

CCCCCCc1cc2cc(C(=O)Nc3cccc(F)c3)c(=N)oc2cc1O
2.31 µM: HCT-15
inactive: NCI/ADR-RES 2.35 µM | SR 2.17 µM | OVCAR-5 3.6 µM | SK-MEL-5 1.4 µM | HCT-116 2.86 µM | SF-295 3.2 µM | Malme-3M 2.31 µM | DU-145 3.56 µM | UACC-62 1.94 µM | OVCAR-4 2.78 µM | MDA-N 3.14 µM | Hs-578T 2.21 µM | MOLT-4 1.95 µM | IGROV-1 1.42 µM | K562 1.15 µM

CC(C)(C)OC(=O)CC(NC(=O)OC(C)(C)C)C(=O)NC(Cc1ccccc1)C(N)=O (stereo unspecified) (Boc-Asp(OtBu)-Phe-NH2; configuration not given here)
> 100 µM: HCT-15
inactive: MDA-MB-231 > 100 µM | HOP-92 19.8 µM | NCI/ADR-RES > 100 µM | NCI-H226 > 100 µM | OVCAR-5 > 100 µM | SK-MEL-5 > 100 µM | HCT-116 > 100 µM | SF-295 > 100 µM | Malme-3M > 100 µM | DU-145 > 100 µM | OVCAR-4 > 100 µM | MDA-N > 100 µM | Hs-578T > 100 µM | IGROV-1 > 100 µM | TK-10 > 100 µM | K562 > 100 µM

Cn1cc(NC(=O)c2cc(NC(=O)CNC(=N)N)cn2C)cc1C(=O)NCCC(=N)N [NETROPSIN CHLORIDE]
> 100 µM: HCT-15
inactive: HOP-92 > 100 µM | NCI/ADR-RES > 100 µM | SR > 100 µM | NCI-H226 > 100 µM | OVCAR-5 > 100 µM | SK-MEL-5 > 100 µM | HCT-116 > 100 µM | SF-295 > 100 µM | Malme-3M 41.7 µM | DU-145 > 100 µM | UACC-62 > 100 µM | OVCAR-4 > 100 µM | MDA-N > 100 µM | Hs-578T > 100 µM | MOLT-4 > 100 µM | IGROV-1 > 100 µM | TK-10 > 100 µM | K562 > 100 µM

Source: ChEMBL document CHEMBL1201862, “PubChem BioAssay data set” (2004)
